Starred links: 1 amine or outer side, 2 acyl side, 3 side chain; linkers in the order of their positions; H or OH if unused. Positions of bridges follow the written chain, without caps; N, C: chain ends. Non-standard residues stand in square brackets, D forms with d. Residues, ends and D or L forms follow the SMILES beside them. Chains are numbered I, II in the order given. Actinocin(9to1) = Cc1c2oc3c(C)ccc(C(=O)[*:1])c3nc-2c(C(=O)[*:2])c(N)c1=O; NMeV = CN[C@H](C(=O)O)C(C)C; Sar = CNCC(=O)O

The data set has as its system human maximum recommended daily dose, FDA database. The data set is described as follows: DSSTox (FDAMDD) FDA Maximum (Recommended) Daily Dose Database. Particulars: stronger effect = lower value. The essentials:
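MRDD values come from clinical trials with daily oral dosing, usually for 3–12 months, for the average adult, in mg/day converted to mg/kg-bw/day assuming 60 kg. Antineoplastic mg/m2 doses are divided by 37. Activity score maps log10(1/MRDD mmol) onto 1–100.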

Setting [1] is: TherapeuticCategory: antibacterial.
Setting [2] is: TherapeuticCategory: diagnostic aid.
Setting [3] is: TherapeuticCategory: skeletal muscle relaxant.
Setting [4] is: TherapeuticCategory: antihistaminic.
[5] abbreviates: TherapeuticCategory: glucocorticoid.
Setting [6] is: TherapeuticCategory: anticonvulsant.
Setting [7] is: TherapeuticCategory: antihypertensive.
Where [8] appears, read: TherapeuticCategory: sedative, hypnotic.
Setting [9] is: TherapeuticCategory: anticholinergic.
Setting [10] is: TherapeuticCategory: antineoplastic.
Setting [11] is: TherapeuticCategory: antihyperlipoproteinemic.
Where [12] appears, read: TherapeuticCategory: analgesic, anti inflammatory.

Consider `O=C(CCCN1CCC(O)(c2cccc(C(F)(F)F)c2)CC1)c1ccc(F)cc1`, for which, where the note is “TherapeuticCategory: antipsychotic”, the maximum recommended daily dose (mmol/kg-bw/day) is 0.000325.

For the compound `NCCC(O)(P(=O)(O)O)P(=O)(O)O`, the maximum recommended daily dose (mmol/kg-bw/day) (TherapeuticCategory: antipagetic) was 0.00638.

With `Cc1onc(-c2ccccc2Cl)c1C(=O)N[C@@H]1C(=O)N2[C@@H]1SC(C)(C)[C@@H]2C(=O)O`, the maximum recommended daily dose (mmol/kg-bw/day) under setting [1] was 0.0764.

For `CCCC(=O)Nc1c(I)cc(I)c(CC(CC)C(=O)O)c1I` (stereo unspecified), the maximum recommended daily dose (mmol/kg-bw/day) under setting [2] is 0.0754.

With `Clc1ccc(COC(Cn2ccnc2)c2ccc(Cl)cc2Cl)c(Cl)c1` (stereo unspecified), the maximum recommended daily dose (mmol/kg-bw/day) (TherapeuticCategory: topical antifungal) was 0.144.

As to `CC[C@]1(O)CC[C@H]2[C@@H]3CCC4=CC(=O)CC[C@@H]4[C@H]3CC[C@@]21C`, under “TherapeuticCategory: androgen”, the maximum recommended daily dose (mmol/kg-bw/day) is 0.00165.

With `CC[N+](CC)(CC)CCOc1cccc(OCC[N+](CC)(CC)CC)c1OCC[N+](CC)(CC)CC`, the maximum recommended daily dose (mmol/kg-bw/day) under setting [3] was 0.00224.

Take `Cc1nc(NS(=O)(=O)c2ccc(N)cc2)oc1C`: the maximum recommended daily dose (mmol/kg-bw/day) under setting [1] is 0.125.

Regarding `OC[C@@H](O)[C@@H](O)[C@H](O)[C@H](O)CO`, for the setting “TherapeuticCategory: diuretic, diagnostic aid”, the maximum recommended daily dose (mmol/kg-bw/day) was 5.48.

Take `CN1CCC[C@@H]1CCO[C@](C)(c1ccccc1)c1ccc(Cl)cc1`: the maximum recommended daily dose (mmol/kg-bw/day) under setting [4] is 0.00039.

In the case of `CN[C@@H]1[C@H](O)[C@H](NC)[C@H]2O[C@@]3(O)C(=O)C[C@@H](C)O[C@H]3O[C@@H]2[C@H]1O`, the maximum recommended daily dose (mmol/kg-bw/day) under setting [1] was 0.201.

For the compound `CCC(=O)OCC(=O)[C@@]1(OC(=O)CC)[C@@H](C)C[C@H]2[C@@H]3CCC4=CC(=O)C=C[C@]4(C)[C@@]3(F)[C@@H](O)C[C@@]21C`, the maximum recommended daily dose (mmol/kg-bw/day) under setting [5] is 0.000297.

Consider `NS(=O)(=O)c1ccc(N2CCCCS2(=O)=O)cc1`, for which the maximum recommended daily dose (mmol/kg-bw/day) under setting [6] was 0.0344.

As to `CN=C(NC)NCc1ccccc1`, the maximum recommended daily dose (mmol/kg-bw/day) under setting [7] is 0.0188.

In the case of `Fc1ccc([C@@H]2CCNC[C@H]2COc2ccc3c(c2)OCO3)cc1`, the maximum recommended daily dose (mmol/kg-bw/day) (TherapeuticCategory: antidepressant) is 0.00253.

As for `CCC(Br)(CC)C(=O)NC(N)=O`, under setting [8], the maximum recommended daily dose (mmol/kg-bw/day) was 0.0704.

On to `Cc1nnc(SCC2=C(C(=O)O)N3C(=O)[C@@H](NC(=O)Cn4cnnn4)[C@H]3SC2)s1`, for which the maximum recommended daily dose (mmol/kg-bw/day) under setting [1] was 0.147.

Turning to `Nc1ncnc2c1ncn2[C@@H]1O[C@H](COP(=O)(O)OP(=O)(O)OP(=O)(O)O)[C@@H](O)[C@H]1O`, the maximum recommended daily dose (mmol/kg-bw/day) (TherapeuticCategory: coenzyme) is 0.000394.

For the compound `CN(CCO)CC(O)Cn1cnc2c1c(=O)n(C)c(=O)n2C` (stereo unspecified) (tested in a mixture with another compound), for the setting “TherapeuticCategory: peripheral vasodilator”, the maximum recommended daily dose (mmol/kg-bw/day) was 0.0575.

On to `CN(C)C(=N)N=C(N)N`, for which the maximum recommended daily dose (mmol/kg-bw/day) (TherapeuticCategory: antidiabetic) was 0.387.

Consider `CCCCC(=O)O[C@H]1CC[C@H]2[C@@H]3CCc4cc(O)ccc4[C@H]3CC[C@]12C`, for which the maximum recommended daily dose (mmol/kg-bw/day) (TherapeuticCategory: estrogen) is 0.0014.

On to `CCCC(=O)N1CCCN(c2nc(N)c3cc(OC)c(OC)cc3n2)CC1`, for which the maximum recommended daily dose (mmol/kg-bw/day) under setting [7] is 0.000134.

As for `OCCN(CCO)CCO`, the maximum recommended daily dose (mmol/kg-bw/day) (TherapeuticCategory: analgesic) is 0.067.

As for `CC[N+](C)(CC)CCOC(=O)C1c2ccccc2Oc2ccccc21`, the maximum recommended daily dose (mmol/kg-bw/day) under setting [9] was 0.0159.

As for `CCCCCCCCCC(=O)OCCN1CCN(CCCN2c3ccccc3Sc3ccc(C(F)(F)F)cc32)CC1`, the maximum recommended daily dose (mmol/kg-bw/day) (TherapeuticCategory: antispsychotic) is 0.000563.

Regarding `CCOC(=O)CCCCCCCCC(C)c1cccc(I)c1` (stereo unspecified), the maximum recommended daily dose (mmol/kg-bw/day) under setting [2] is 0.3.

Turning to `COc1ccc([C@@H]2Sc3ccccc3N(CCN(C)C)C(=O)[C@@H]2OC(C)=O)cc1`, the maximum recommended daily dose (mmol/kg-bw/day) (TherapeuticCategory: antianginal) is 0.0193.

For the compound `COc1c2occc2cc2ccc(=O)oc12`, the maximum recommended daily dose (mmol/kg-bw/day) (TherapeuticCategory: pigmentation agent) is 0.00278.

As to `NCCNCCNCCN`, the maximum recommended daily dose (mmol/kg-bw/day) (TherapeuticCategory: chelating agent, treatmemt of Wilson's disease) was 0.228.

As to `CC(C)N=C(N)/N=C(\N)Nc1ccc(Cl)cc1`, where the note is “TherapeuticCategory: antimalarial”, the maximum recommended daily dose (mmol/kg-bw/day) was 0.0131.

With `CCCCC(=O)O[C@]1(C(=O)COC(C)=O)CC[C@H]2[C@@H]3CCC4=CC(=O)C=C[C@]4(C)[C@H]3[C@@H](O)C[C@@]21C`, the maximum recommended daily dose (mmol/kg-bw/day) under setting [5] is 0.00684.

Regarding `COc1cc(NS(=O)(=O)c2ccc(N)cc2)nc(OC)n1`, under setting [1], the maximum recommended daily dose (mmol/kg-bw/day) is 0.107.

On to `CN1CCC(=C2c3ccccc3CCc3cccnc32)CC1`, for which, under setting [4], the maximum recommended daily dose (mmol/kg-bw/day) is 0.000115.

For the compound `COc1cc2nc(N3CCN(C(=O)C4CCCO4)CC3)nc(N)c2cc1OC` (stereo unspecified), the maximum recommended daily dose (mmol/kg-bw/day) under setting [7] was 0.00086.

With `CCCCCCCCCCCCCCCC(=O)OCC(=O)[C@@]1(O)[C@H](C)C[C@H]2[C@@H]3CCC4=CC(=O)C=C[C@]4(C)[C@@]3(F)[C@@H](O)C[C@@]21C`, the maximum recommended daily dose (mmol/kg-bw/day) (TherapeuticCategory: glucocorticoid, anti inflammatory) is 0.000238.

In the case of `CCN(CC)CCNc1ccc(CO)c2sc3ccccc3c(=O)c12`, the maximum recommended daily dose (mmol/kg-bw/day) (TherapeuticCategory: antihelmintic) was 0.0281.

With `CC(=O)Nc1c(I)c(C(=O)O)c(I)c(N(C)C(C)=O)c1I`, under setting [2], the maximum recommended daily dose (mmol/kg-bw/day) was 0.159.

With `CC(C)(O/N=C(\C(=O)N[C@@H]1C(=O)N2C(C(=O)[O-])=C(C[n+]3ccccc3)CS[C@H]12)c1csc(N)n1)C(=O)O`, the maximum recommended daily dose (mmol/kg-bw/day) under setting [1] is 0.243.

For `Cc1c2oc3c(C)ccc(C(=O)N[C@@H]4C(=O)N[C@H](C(C)C)C(=O)N5CCC[C@H]5C(=O)N(C)CC(=O)N(C)[C@@H](C(C)C)C(=O)O[C@@H]4C)c3nc-2c(C(=O)N[C@@H]2C(=O)N[C@H](C(C)C)C(=O)N3CCC[C@H]3C(=O)N(C)CC(=O)N(C)[C@@H](C(C)C)C(=O)O[C@@H]2C)c(N)c1=O` (I: T[dV]P[Sar][NMeV] / II: T[dV]P[Sar][NMeV]; ester I:1-I:C, II:1-II:C; linker I:N-II:N via Actinocin(9to1)), under setting [10], the maximum recommended daily dose (mmol/kg-bw/day) is 1.19e-05.

For the compound `C[N+](C)(C)C[C@H](O)CC(=O)[O-]`, the maximum recommended daily dose (mmol/kg-bw/day) under setting [11] is 0.307.

As for `CC(=O)OC[C@H]1O[C@@H](n2ncc(=O)[nH]c2=O)[C@H](OC(C)=O)[C@@H]1OC(C)=O`, the maximum recommended daily dose (mmol/kg-bw/day) (TherapeuticCategory: antineoplastic, antipsoriatic) was 0.458.

As to `CC(C)(C)NCC(O)COc1cccc2c1C[C@H](O)[C@H](O)C2` (stereo partly specified), the maximum recommended daily dose (mmol/kg-bw/day) (TherapeuticCategory: antihypertensive, antianginal) is 0.0346.

Take `CC(=O)O[C@H]1C[C@@H]2CC[C@@H]3[C@H](CC[C@@]4(C)[C@H]3C[C@H](N3CC[N+](C)(C)CC3)[C@@H]4OC(C)=O)[C@@]2(C)C[C@@H]1N1CC[N+](C)(C)CC1`: the maximum recommended daily dose (mmol/kg-bw/day) under setting [3] was 0.000118.

For the compound `N[C@@H](Cc1c[nH]c2ccccc12)C(=O)O`, the maximum recommended daily dose (mmol/kg-bw/day) (TherapeuticCategory: antidepressant, nutrient) is 0.49.

With `COc1cc(NCc2ccc3nc(N)nc(N)c3c2C)cc(OC)c1OC`, the maximum recommended daily dose (mmol/kg-bw/day) under setting [10] is 0.0033.

Turning to `CCOC(=O)C1(c2ccccc2)CCN(CCc2ccc(N)cc2)CC1`, the maximum recommended daily dose (mmol/kg-bw/day) (TherapeuticCategory: narcotic analgesic) is 0.00945.

Regarding `CC(=O)OCC(=O)[C@H]1CC[C@H]2[C@@H]3CCC4=CC(=O)CC[C@]4(C)[C@H]3CC[C@]12C`, the maximum recommended daily dose (mmol/kg-bw/day) (TherapeuticCategory: mineralcorticoid) is 0.00448.

Turning to `C[C@]12CC[C@H]3[C@@H](CC[C@@]45O[C@@H]4C(O)=C(C#N)C[C@]35C)[C@@H]1CC[C@@H]2O`, the maximum recommended daily dose (mmol/kg-bw/day) (TherapeuticCategory: adrenocortical suppressant, treatment of breast cancer) was 0.0243.

Turning to `O=C(c1ccccc1)c1ccc2n1CCC2C(=O)O` (stereo unspecified), the maximum recommended daily dose (mmol/kg-bw/day) under setting [12] was 0.00979.

With `C#CC(O)(/C=C\Cl)CC` (stereo unspecified), under setting [8], the maximum recommended daily dose (mmol/kg-bw/day) was 0.115.

For `COC(=O)[C@H]1[C@H]2C[C@@H]3c4[nH]c5cc(OC)ccc5c4CCN3C[C@H]2C[C@@H](OC(=O)/C=C/c2cc(OC)c(OC)c(OC)c2)[C@@H]1OC`, under setting [7], the maximum recommended daily dose (mmol/kg-bw/day) was 2.63e-05.

Regarding `O=C(OCC(COC(=O)c1cccnc1)(COC(=O)c1cccnc1)COC(=O)c1cccnc1)c1cccnc1`, the maximum recommended daily dose (mmol/kg-bw/day) under setting [11] is 0.00719.

As for `CCC1(C)CC(=O)NC1=O` (stereo unspecified), under setting [6], the maximum recommended daily dose (mmol/kg-bw/day) is 0.118.

On to `CC(C(=O)O)c1ccc2oc(-c3ccc(Cl)cc3)nc2c1` (stereo unspecified), for which the maximum recommended daily dose (mmol/kg-bw/day) under setting [12] is 0.0331.

In the case of `CCCSc1ccc2nc(NC(=O)OC)[nH]c2c1`, the maximum recommended daily dose (mmol/kg-bw/day) (TherapeuticCategory: anthelmintic) is 0.0501.

With `CCCC(=O)O[C@H]1[C@H](C)O[C@@H](O[C@H]2[C@H](N(C)C)[C@@H](O)[C@H](O[C@H]3[C@@H](CC=O)C[C@@H](C)[C@@H](O)/C=C/C=C/C[C@@H](C)OC(=O)C[C@@H](O)[C@@H]3OC)O[C@@H]2C)C[C@@]1(C)OC(=O)CC`, the maximum recommended daily dose (mmol/kg-bw/day) under setting [1] is 0.0242.

Regarding `O=c1[nH]cnc2[nH]ncc12`, where the note is “TherapeuticCategory: antiurolithic”, the maximum recommended daily dose (mmol/kg-bw/day) was 0.0977.

`O=C1CN=C(c2ccccc2)c2cc(Cl)ccc2N1CC1CC1`: the maximum recommended daily dose (mmol/kg-bw/day) (TherapeuticCategory: anxiolytic) is 0.00308.

With `O=C(N[C@H](CO)[C@H](O)c1ccc([N+](=O)[O-])cc1)C(Cl)Cl`, the maximum recommended daily dose (mmol/kg-bw/day) (TherapeuticCategory: antibacterial, antirickettsial) is 0.309.

As for `O=C(Cn1c(=O)sc2ccc(Cl)cc21)N1CCN(CCO)CC1`, for the setting “TherapeuticCategory: antiasthmatic, anti inflammatry”, the maximum recommended daily dose (mmol/kg-bw/day) was 0.0141.

In the case of `CN1[C@@H]2CC[C@H]1CC(OC(=O)C(O)c1ccccc1)C2` (stereo partly specified), the maximum recommended daily dose (mmol/kg-bw/day) under setting [9] was 0.0018.

For the origin of these results see PubChem BioAssay AID1195 (EPA DSSTox, 2008).
